Data as given in the supplement of paper PMC10307832.

How the values were obtained:
Assay in all cases: relative viability (nuclei count vs DMSO), 5 days (fraction); higher = more cells survive
NCI-H2228 = test system: NCI-H2228
Summary of the method: (§1)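 One day after seeding in 1536-well plates, lung cancer cell lines were dosed by pin tool. Dosing was either single-drug or a fixed anchor-drug dose plus five library-drug doses (not always all listed) in √10 steps. After 5 days, nuclei were stained in one fix-and-stain step and counted on 4× images, and relative viability is the nuclei count of treated wells over that of vehicle wells, given as the median of duplicate plates.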

PC-3 [JPC-3] = test system: PC-3 [JPC-3]
Summary of the method: as §1

A-427 = test system: A-427
Summary of the method: as §1

LOU-NH91 = test system: LOU-NH91
Summary of the method: as §1

HOP-62 = test system: HOP-62
Summary of the method: as §1

NCI-H1734 = test system: NCI-H1734
Summary of the method: as §1

SW 1573 = test system: SW 1573
Summary of the method: as §1

NCI-H1915 = test system: NCI-H1915
Summary of the method: as §1

NCI-H2347 = test system: NCI-H2347
Summary of the method: as §1

HCC-78 = test system: HCC-78
Summary of the method: as §1

NCI-H1755 = test system: NCI-H1755
Summary of the method: as §1

LC-2-ad = test system: LC-2-ad
Summary of the method: as §1

With CC1(C)CCC(c2ccc(Cl)cc2)=C(CN2CCN(c3ccc(C(=O)NS(=O)(=O)c4ccc(N[C@H](CCN5CCOCC5)CSc5ccccc5)c(S(=O)(=O)C(F)(F)F)c4)cc3)CC2)C1 [Navitoclax] + N=C(N)NC(=N)NCCc1ccccc1 [Phenformin] (partner 250 µM) the relative viability (NCI-H2228; first compound 0.005 µM) was 0.35, the relative viability (NCI-H2228; first compound 0.01581 µM) was 0.385 and the relative viability (NCI-H2228; first compound 0.1581 µM) was 0.276. For the same compound, the relative viability (NCI-H2228; first compound 0.5 µM) was 0.418, the relative viability (PC-3 [JPC-3]; first compound 0.005 µM) was 0.466 and the relative viability (PC-3 [JPC-3]; first compound 0.01581 µM) was 0.48. It also gave a relative viability (PC-3 [JPC-3]; first compound 0.05 µM) of 0.516, a relative viability (PC-3 [JPC-3]; first compound 0.1581 µM) of 0.453 and a relative viability (PC-3 [JPC-3]; first compound 0.5 µM) of 0.41. For the same compound, the relative viability (A-427; first compound 0.005 µM) was 0.342, the relative viability (A-427; first compound 0.01581 µM) was 0.359 and the relative viability (A-427; first compound 0.05 µM) was 0.179. It also gave a relative viability (A-427; first compound 0.1581 µM) of 0.287, a relative viability (A-427; first compound 0.5 µM) of 0.273 and a relative viability (LOU-NH91; first compound 0.005 µM) of 0.8. The relative viability (LOU-NH91; first compound 0.01581 µM) was 0.693, the relative viability (LOU-NH91; first compound 0.05 µM) was 0.636 and the relative viability (LOU-NH91; first compound 0.1581 µM) was 0.652. For the same compound, the relative viability (LOU-NH91; first compound 0.5 µM) was 0.427, the relative viability (HOP-62; first compound 0.005 µM) was 0.639 and the relative viability (HOP-62; first compound 0.01581 µM) was 0.673. The relative viability (HOP-62; first compound 0.05 µM) was 0.65, the relative viability (HOP-62; first compound 0.1581 µM) was 0.669 and the relative viability (HOP-62; first compound 0.5 µM) was 0.702. For the same compound, the relative viability (NCI-H1734; first compound 0.005 µM) was 0.367, the relative viability (NCI-H1734; first compound 0.01581 µM) was 0.461 and the relative viability (NCI-H1734; first compound 0.1581 µM) was 0.371. It also gave a relative viability (NCI-H1734; first compound 0.5 µM) of 0.341, a relative viability (SW 1573; first compound 0.005 µM) of 0.437 and a relative viability (SW 1573; first compound 0.01581 µM) of 0.503. The relative viability (SW 1573; first compound 0.05 µM) was 0.358, the relative viability (SW 1573; first compound 0.1581 µM) was 0.414 and the relative viability (SW 1573; first compound 0.5 µM) was 0.406. It also gave a relative viability (NCI-H1915; first compound 0.005 µM) of 0.382, a relative viability (NCI-H1915; first compound 0.01581 µM) of 0.431 and a relative viability (NCI-H1915; first compound 0.05 µM) of 0.441. For the same compound, the relative viability (NCI-H1915; first compound 0.1581 µM) was 0.42, the relative viability (NCI-H1915; first compound 0.5 µM) was 0.388 and the relative viability (NCI-H2347; first compound 0.005 µM) was 0.452. It also gave a relative viability (NCI-H2347; first compound 0.01581 µM) of 0.567, a relative viability (NCI-H2347; first compound 0.1581 µM) of 0.321 and a relative viability (NCI-H2347; first compound 0.5 µM) of 0.482. It also gave a relative viability (HCC-78; first compound 0.005 µM) of 0.727, a relative viability (HCC-78; first compound 0.01581 µM) of 0.692 and a relative viability (HCC-78; first compound 0.1581 µM) of 0.645. It also gave a relative viability (HCC-78; first compound 0.5 µM) of 0.75, a relative viability (NCI-H1755; first compound 0.005 µM) of 0.639 and a relative viability (NCI-H1755; first compound 0.01581 µM) of 0.659. For the same compound, the relative viability (NCI-H1755; first compound 0.05 µM) was 0.575, the relative viability (NCI-H1755; first compound 0.1581 µM) was 0.521 and the relative viability (NCI-H1755; first compound 0.5 µM) was 0.43. It also gave a relative viability (LC-2-ad; first compound 0.005 µM) of 0.577, a relative viability (LC-2-ad; first compound 0.01581 µM) of 0.653 and a relative viability (LC-2-ad; first compound 0.05 µM) of 0.58.
